{"source": "patent US20020132802A1", "about": "“Cytoprotective polycyclic compounds” (Washington Univeristy, priority 2000, published 2002)", "tested_on": "HT-22 cells", "experiment": "HT-22 Cell Neuroprotection Assay (glutamate-induced cell death, calcein AM viability)", "assay_type": "cell-based, murine", "details": "about 16 h exposure", "protocol": "Method: HT-22 Cell Neuroprotection Assay\nHT-22 cells (immortalized hippocampal neurons of murine origin) were maintained in DMEM media (Life Technologies, Inc., Gaitherburg, Md.) supplemented with 10% charcoal-stripped FBS (HyClone Laboratories, Inc., Logan, Utah) and 20 μg/mL gentamycin, according to standard culture conditions.\nCells were plated at a density of 5,000 cells/well in clear-bottomed Nunc 96-well plates (Fisher Scientific, Orlando, Fla.) and allowed to incubate overnight. Steroids dissolved in DMSO were added at concentrations ranging from 0.01-10 μM and were co-administered with glutamate (10 mM or 20 mM). DMSO was used at concentrations of 0.1% vol/vol as a vehicle control and had no discernible effect on cell viability. After about 16 h of glutamate exposure, cells were rinsed with PBS, pH 7.4, and viability was assessed by the addition of 25 μM calcein AM (Molecular Probes, Inc., Eugene, Oreg.) in PBS for 15 min at room temperature. Fluorescence was determined (excitation 485 nm, emission 530 nm) using a fluorescence FL600 microplate reader (Biotek, Winooski, Vt.). Cells that were lysed by addition of methanol were used for blank readings. All data were normalized to % cell death, as calculated by (control value −insult value)/control value×100.", "note": "Where two headings read alike, the source gives them in different places.", "data": [{"smiles": "C[C@]12CC[C@@H]3c4ccc(O)cc4CC[C@H]3[C@@H]1CCC2=O", "note": "[Estrone, estrone, reference compound]", "values": [{"measurement": "EC50", "setting": "Mus musculus, co-administered with 10 mM glutamate, read-out: Steroid concentration needed to protect 50% of neurons killed by 10 mM Glutamate ED50", "value": 3.03, "unit": "µM"}]}, {"smiles": "C[C@@]12CC=C3c4ccc(O)cc4CC[C@@H]3[C@H]1CC[C@H]2O", "note": "[ZYC-12]", "values": [{"measurement": "EC50", "setting": "co-administered with 10 mM glutamate, read-out: Steroid concentration needed to protect 50% of neurons killed by 10 mM Glutamate ED50", "value": 0.53, "unit": "µM"}, {"measurement": "EC50", "setting": "co-administered with 20 mM glutamate, read-out: Steroid concentration needed to protect 50% of neurons killed by 20 mM Glutamate ED50", "value": 1.43, "unit": "µM"}]}]}
